Results taken from patent US11690850B2, “Inhibitors of receptor interacting protein kinase I for the treatment of disease” (Board of Regents, The University of Texas System, priority 2019, dated 2023).
pIC50: −log10 of the molar value.

Target: RIPK1 (Homo sapiens (Human), UniProt Q13546)
Test: ADP-Glo Kinase Assay
Type: biochemical
Conditions: 5 nM RIPK1 protein, 50 μM ATP, 6 hr reaction, average value across multiple runs
Description: In order to measure RIPK1 activity the ADP-Glo kinase assay (Promega, Catalog #V7002) was used to measure the conversion of ATP to ADP. This enzymatic assay was performed in a 384-well white, Optiplate (Perkin Elmer, Catalog #6007299) with assay buffer consisting of 50 mM HEPES pH 7.5 (Gibco, Catalog #15630-080), 50 mM NaCl (Teknova, Catalog #S0252), 30 mM MgCl2 (Ambion, Catalog #AM9530G), 1 mM DTT (Santa Cruz Biotechnology, Catalog #sc-29089), 0.05% BSA (Sigma, Catalog #A3059-50G) and 0.02% CHAPS (Sigma, Catalog #C5070-5G). Stock solutions of the test compounds were prepared in 100% DMSO (Sigma, Catalog #D2650) and serially diluted 1:3 using 100% DMSO. Compounds were additionally diluted 1:40 in assay buffer, and 2 μL/well were transferred to the assay plate. 4 μL/well (final concentration of 5 nM) of RIPK1 protein (SignalChem, Catalog #R07-11G-05) diluted in assay buffer and added to the assay plate followed by a 10 minute preincutation at room temperature. 4 μL/well of ATP (Promega, Catalog #V7002) (final concentration of 50 μM) diluted in assay buffer were then added to the assay plate followed by a 6 hr reaction time. Final concentrations of RIPK1 and ATP refer to a 10 μL volume. Luminescence was measured using a BioTek Synergy™ NEO plate reader. IC50 values were calculated using a four-parameter logistic curve fit using Genedata Screener software. Results are shown below in Table 4, where the average value across multiple runs is given.

Chain of RIPK1 (Q13546 1-327): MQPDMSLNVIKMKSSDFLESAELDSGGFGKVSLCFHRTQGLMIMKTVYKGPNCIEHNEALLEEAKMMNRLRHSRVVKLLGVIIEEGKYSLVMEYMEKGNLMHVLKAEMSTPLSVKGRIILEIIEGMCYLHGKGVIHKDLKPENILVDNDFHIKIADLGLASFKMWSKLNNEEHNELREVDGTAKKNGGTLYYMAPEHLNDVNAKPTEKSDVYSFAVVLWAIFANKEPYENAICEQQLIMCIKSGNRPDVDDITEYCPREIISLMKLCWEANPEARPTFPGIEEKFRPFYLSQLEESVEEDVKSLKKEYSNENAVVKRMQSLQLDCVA

pIC50	Compound
5.30	Cc1cc(=O)c(C(=O)Nc2ccccn2)nn1-c1ccc(Cl)cc1 [Example 103, 1-(4-chlorophenyl)-6-methyl-4-oxo-N-(pyridin-2-yl)-1,4-dihydropyridazine-3-carboxamide]
5.08	Cc1cc(=O)c(C(=O)NCC2CCC2)nn1-c1ccccc1 [Example 104, N-(cyclobutylmethyl)-6-methyl-4-oxo-1-phenyl-1,4-dihydropyridazine-3-carboxamide]
4.43	Cc1noc(C(C)NC(=O)c2nn(-c3ccccc3)c(C)cc2=O)n1 (centres unmarked) [Example 105, 6-methyl-N-(1-(3-methyl-1,2,4-oxadiazol-5-yl)ethyl)-4-oxo-1-phenyl-1,4-dihydropyridazine-3-carboxamide]
5.75	Cc1cc(=O)c(C(=O)Nc2ccccn2)nn1-c1ccccc1 [Example 106, 6-methyl-4-oxo-1-phenyl-N-(pyridin-2-yl)-1,4-dihydropyridazine-3-carboxamide]
4.69	Cc1cccc(NC(=O)c2nn(-c3ccccc3F)c(C)cc2=O)c1 [Example 107, 1-(2-fluorophenyl)-6-methyl-4-oxo-N-(m-tolyl)-1,4-dihydropyridazine-3-carboxamide]
4.54	Cc1cc(=O)c(C(=O)Nc2ccccc2F)nn1-c1ccccc1 [Example 108, N-(2-fluorophenyl)-6-methyl-4-oxo-1-phenyl-1,4-dihydropyridazine-3-carboxamide]

More lines, now with the values behind:

Compound	pIC50
Cc1cc(=O)c(C(=O)Nc2cc(F)cc(F)c2)nn1-c1ccccc1 [Example 92, N-(3,5-difluorophenyl)-6-methyl-4-oxo-1-phenyl-1,4-dihydropyridazine-3-carboxamide]	6.38
Cc1cc(=O)c(C(=O)Nc2cccc(F)c2)nn1-c1ccccc1 [Example 93, N-(3-fluorophenyl)-6-methyl-4-oxo-1-phenyl-1,4-dihydropyridazine-3-carboxamide]	6.55
Cc1ccnc(NC(=O)c2nn(-c3ccccc3F)c(C)cc2=O)c1 [Example 94, 1-(2-fluorophenyl)-6-methyl-N-(4-methylpyridin-2-yl)-4-oxo-1,4-dihydropyridazine-3-carboxamide]	5.20
Cc1cccc(NC(=O)c2nn(-c3ccccc3F)c(C)cc2=O)n1 [Example 95, 1-(2-fluorophenyl)-6-methyl-N-(6-methylpyridin-2-yl)-4-oxo-1,4-dihydropyridazine-3-carboxamide]	5.40
Cc1cc(=O)c(C(=O)NC(C)C2CC2)nn1-c1ccccc1 (centres unmarked) [Example 96, N-(1-cyclopropylethyl)-6-methyl-4-oxo-1-phenyl-1,4-dihydropyridazine-3-carboxamide]	5.19
Cc1ccc(NC(=O)c2nn(-c3ccccc3)c(C)cc2=O)cc1 [Example 97, 6-methyl-4-oxo-1-phenyl-N-(p-tolyl)-1,4-dihydropyridazine-3-carboxamide]	4.93
Cc1cc(=O)c(C(=O)NC(c2ccccc2)C2CC2)nn1-c1ccccc1 (centres unmarked) [Example 98, N-(cyclopropyl(phenyl)methyl)-6-methyl-4-oxo-1-phenyl-1,4-dihydropyridazine-3-carboxamide]	5.45
Cc1cccc(NC(=O)c2nn(-c3ccccc3)c(C)cc2=O)n1 [Example 99, 6-methyl-N-(6-methylpyridin-2-yl)-4-oxo-1-phenyl-1,4-dihydropyridazine-3-carboxamide]	5.46
Cc1cc(=O)c(C(=O)Nc2ccc(Cl)cn2)nn1-c1ccccc1F [Example 100, N-(5-chloropyridin-2-yl)-1-(2-fluorophenyl)-6-methyl-4-oxo-1,4-dihydropyridazine-3-carboxamide]	4.36
CCn1c(NC(=O)c2nn(-c3ccccc3)c(C)cc2=O)nc2ccccc21 [Example 101, N-(1-ethyl-1H-benzo[d]imidazol-2-yl)-6-methyl-4-oxo-1-phenyl-1,4-dihydropyridazine-3-carboxamide]	5.33
Cc1cc(=O)c(C(=O)Nc2ccccn2)nn1-c1ccccc1Cl [Example 102, 1-(2-chlorophenyl)-6-methyl-4-oxo-N-(pyridin-2-yl)-1,4-dihydropyridazine-3-carboxamide]	5.62
